Measured values from patent EP0603240B1, “SAFENING HERBICIDAL PYRAZOLYLSULFONYLUREAS” (priority 1991, dated 1993).

Tests used:
Type in all cases: in vivo
[1] = tested on: velvetleaf (Abutilon theophrasti); experiment: Example 7, Procedure II: Herbicide No. 1 + metolachlor (No. 12) with antidotes
In short: (§1)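 Herbicide and antidote in acetone were mixed into silt loam soil used to cover seeded beds, followed by 0.6 cm overhead irrigation, then sub-irrigation in the greenhouse. Percent injury was scored against herbicide-alone and untreated controls, averaged over duplicates. Herbicide No. 1 was combined with metolachlor.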

[2] = tested on: barnyardgrass (Echinochloa crusgalli); experiment: as above
In short: as §1

[3] = tested on: corn; experiment: as above
In short: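 Herbicide plus antidote, applied in acetone, mixed into silt loam top soil used to cover corn seed beds, with untreated and herbicide-only controls. After incorporation, containers got overhead irrigation equal to 0.6 cm rainfall, then sub-irrigation in greenhouse. Percent injury scored; antidote efficacy is injury difference; duplicate averages.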

[4] = tested on: corn; experiment: Example 6, Procedure II: Herbicide No. 1 + alachlor (No. 7) with antidotes
In short: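 Herbicide No. 1 plus alachlor and antidote, each applied in acetone, mixed into silt loam cover soil over seeded corn; untreated and herbicide-only controls included. Given initial overhead irrigation equal to 0.6 cm rainfall, then greenhouse sub-irrigation. Percent injury scored, duplicate averages; efficacy is injury without minus with antidote.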

[5] = tested on: corn; experiment: Example 23, Procedure II: Antidote Nos. 15 and 17-21 against Herbicide No. 1, 13 days after application; conditions: 13 days after application
Protocol: (§2) Containers were filled and compacted with a fumigated silt loam top soil to a depth of about 1.3 cm from the top of the container. A first container was designated as an untreated control, a second container was designated as a herbicide control, and a third container was designated as a herbicide + antidote test container. Each of the containers was seeded with a crop species. A measured amount of herbicide dispersed or dissolved in acetone was applied to a measured quantity of soil. To this same quantity of soil treated with herbicide, there was added a measured amount of antidote dispersed or dissolved in acetone. The quantity of soil treated with the herbicide and antidote was thoroughly mixed to incorporate the herbicide and antidote in the soil uniformly. The seed bed in the third container of soil was covered with the soil treated with the herbicide and antidote and the container was leveled. For each test series, the seed beds of the first and second containers were likewise covered by soil layers. the cover layer of the first container was not treated with herbicide or antidote.
(§3) The containers were then placed on a bench in a greenhouse and sub-irrigated as required for the duration of the test. […] Plant response is measured in terms of percent injury. Antidote efficacy is indicated as the difference in plant injury by the herbicide(s) without the antidote and with the antidote.
(§4) This procedure is the same as Procedure I, but modified in the manner that after incorporation of the chemicals (herbicide and antidote) the containers with the covered seedbed were treated with an initial overhead irrigation equivalent to 0.6 cm rainfall, then subsequently sub-irrigated as required on greenhouse benches.
(§5) In other greenhouse tests, using Procedure II described above, the safening efficacy of Antidote Nos. 15 and 17-21 was evaluated against Herbicide No. 1 in corn in the presence of Giant foxtail (Setaria fabergi) and Velvetleaf (Abutilon theophrasti) as representative annual monocotyledonous and dicotyledonous weeds, respectively.
(§6) Test results are shown in Tables 23A and 23B wherein the indicated plant inhibition represents the average of duplicate replications, with observations being made thirteen (13) days after application of the chemicals. Giant foxtail and Velvetleaf are represented by the symbols "GFT" and "VL", respectively. The data in Table 23A show the test results using the antidotes at 2.24 kg/ha, whereas in Table 23B, the antidotal rate was reduced to 0.56 kg/ha.

[6] = tested on: velvetleaf (Abutilon theophrasti); experiment: as above
Protocol: as §2, §3, §4, §5, §6

[7] = tested on: Giant foxtail (Setaria fabergi); experiment: as above
Protocol: as §2, §3, §4, §5, §6

[8] = tested on: velvetleaf (Abutilon theophrasti); experiment: Example 21, Procedure II: Herbicide No. 1 + SUTAN PLUS (butylate + antidote) with antidotes
Protocol: as §2, §3, §4
(§7) In the series of greenhouse tests described below, for routine screening purposes the herbicide/antidote compositions were tested in crop/weed combinations involving corn as the crop and either or both of the weeds barnyardgrass (Echinochloa crusgalli), a monocotyledonous weed, and velvetleaf (Abutilon theophrasti), a dicotyledonous weed. In the tables below, these weeds are indicated by the symbols "BYG" and "VL", respectively.
(§8) In this example, tests were conducted as in the preceding Examples 18-20, except here the co-herbicidal component was SUTAN® PLUS, a commercial product comprising as the active herbicidal ingredient the compound butylate (Herbicide No. 10) and an antidote […] (Antidote No. 1). Again, the antidotal compounds herein were Nos. 1, 2, 7, 13 and 15. Procedure II was used.

[9] = tested on: barnyardgrass (Echinochloa crusgalli); experiment: as above
Protocol: as §2, §3, §4, §7, §8

[10] = tested on: velvetleaf (Abutilon theophrasti); experiment: Example 11, Procedure II: Herbicide No. 1 + metazachlor (No. 14) with antidotes
[11] = tested on: barnyardgrass (Echinochloa crusgalli); experiment: as above
[12] = Herbicide No.1 0.14 + No.12 3.36 kg/ha + antidote 2.24 kg/ha
[13] = Herbicide No.1 0.14 + No.12 3.36 kg/ha + antidote 8.96 kg/ha
[14] = Herbicide No.1 0.56 + No.12 3.36 kg/ha + antidote 2.24 kg/ha
[15] = Herbicide No.1 0.56 + No.12 3.36 kg/ha + antidote 8.96 kg/ha
[16] = Table 23A, Herb. No. 1 0.14 Kg/Ha + antidote 2.24 Kg/ha
[17] = Table 23A, Herb. No. 1 0.28 Kg/Ha + antidote 2.24 Kg/ha
[18] = Table 23A, Herb. No. 1 0.56 Kg/Ha + antidote 2.24 Kg/ha
[19] = Table 23A, Herb. No. 1 1.12 Kg/Ha + antidote 2.24 Kg/ha
[20] = Table 23B, Herb. No. 1 0.14 Kg/Ha + antidote 0.56 Kg/ha
[21] = Table 23B, Herb. No. 1 0.28 Kg/Ha + antidote 0.56 Kg/ha
[22] = Table 23B, Herb. No. 1 0.56 Kg/Ha + antidote 0.56 Kg/ha
[23] = Table 23B, Herb. No. 1 1.12 Kg/Ha + antidote 0.56 Kg/ha
[24] = Herbicide No.1 0.56 kg/ha + SUTAN + 8.96 kg/ha, antidote 2.24 kg/ha
[25] = Herbicide No.1 0.56 kg/ha + SUTAN + 8.96 kg/ha, antidote 8.96 kg/ha
[26] = Herbicide No.1 1.12 kg/ha + SUTAN + 8.96 kg/ha, antidote 2.24 kg/ha
[27] = Herbicide No.1 1.12 kg/ha + SUTAN + 8.96 kg/ha, antidote 8.96 kg/ha
[28] = Herbicide No.1 0.56 kg/ha + Herbicide No.14 3.36 kg/ha, antidote rate 2.24 kg/ha
[29] = Herbicide No.1 0.56 kg/ha + Herbicide No.14 3.36 kg/ha, antidote rate 8.96 kg/ha
[30] = Herbicide No.1 1.12 kg/ha + Herbicide No.14 3.36 kg/ha, antidote rate 2.24 kg/ha
[31] = Herbicide No.1 1.12 kg/ha + Herbicide No.14 3.36 kg/ha, antidote rate 8.96 kg/ha

## CC1(C)OC(c2ccco2)CN1C(=O)C(Cl)Cl (centres unmarked) [compound 15]
[1]; [12]
  % Injury VL: 70%
[1]; [13]
  % Injury VL: 65%
[1]; [14]
  % Injury VL: 75%
[1]; [15]
  % Injury VL: 70%
[2]; [12]
  % Injury BYG: 100%
[2]; [13]
  % Injury BYG: 100%
[2]; [14]
  % Injury BYG: 100%
[2]; [15]
  % Injury BYG: 100%
[3]; [12]
  % Injury Corn: 0%
[3]; [13]
  % Injury Corn: 10%
[3]; [14]
  % Injury Corn: 15%
[3]; [15]
  % Injury Corn: 15%
[4]; Herbicide No.1 0.14 + No.7 4.48 kg/ha + antidote 2.24 kg/ha
  % Injury Corn: 20%
[4]; Herbicide No.1 0.14 + No.7 4.48 kg/ha + antidote 8.96 kg/ha
  % Injury Corn: 10%
[4]; Herbicide No.1 0.56 + No.7 4.48 kg/ha + antidote 2.24 kg/ha
  % Injury Corn: 15%
[4]; Herbicide No.1 0.56 + No.7 4.48 kg/ha + antidote 8.96 kg/ha
  % Injury Corn: 15%
[5]; [16]
  % Inhibition Corn: 5%
[5]; [17]
  % Inhibition Corn: 0%
[5]; [18]
  % Inhibition Corn: 5%
[5]; [19]
  % Inhibition Corn: 20%
[5]; [20]
  % Inhibition Corn: 0%
[5]; [21]
  % Inhibition Corn: 0%
[5]; [22]
  % Inhibition Corn: 5%
[5]; [23]
  % Inhibition Corn: 10%
[6]; [16]
  % Inhibition VL: 90%
[6]; [17]
  % Inhibition VL: 90%
[6]; [18]
  % Inhibition VL: 90%
[6]; [19]
  % Inhibition VL: 98%
[6]; [20]
  % Inhibition VL: 85%
[6]; [21]
  % Inhibition VL: 90%
[6]; [22]
  % Inhibition VL: 95%
[6]; [23]
  % Inhibition VL: 95%
[7]; [16]
  % Inhibition GFT: 20%
[7]; [17]
  % Inhibition GFT: 30%
[7]; [18]
  % Inhibition GFT: 65%
[7]; [19]
  % Inhibition GFT: 75%
[7]; [20]
  % Inhibition GFT: 20%
[7]; [21]
  % Inhibition GFT: 30%
[7]; [22]
  % Inhibition GFT: 60%
[7]; [23]
  % Inhibition GFT: 70%
[8]; [24]
  % Injury VL: 50%
[8]; [25]
  % Injury VL: 60%
[8]; [26]
  % Injury VL: 65%
[8]; [27]
  % Injury VL: 65%
[9]; [24]
  % Injury BYG: 0%
[9]; [25]
  % Injury BYG: 10%
[9]; [26]
  % Injury BYG: 15%
[9]; [27]
  % Injury BYG: 40%
[10]; [28]
  % Injury VL: 90%
[10]; [29]
  % Injury VL: 90%
[10]; [30]
  % Injury VL: 85%
[10]; [31]
  % Injury VL: 85%
[11]; [28]
  % Injury BYG: 100%
[11]; [29]
  % Injury BYG: 100%
[11]; [30]
  % Injury BYG: 100%
[11]; [31]
  % Injury BYG: 100%
